According to paper PMC12931196, “Vm–MSI: a Vancomycin–Antimicrobial Peptide Conjugate Combating Resistant Bacteria and Broadening the Antimicrobial Spectrum” (Advanced Science, 2025):
≈ marks a conversion by molar mass, not a printed value. Where “and” joins values, the source holds several entries; their conditions need not be identical. Identical values can stand only once.

How the values were obtained:
MRSA ATCC43300 = test: microbe, parasite or virus in culture; details: Staphylococcus aureus, 18 h
VRSA 52 = test: microbe, parasite or virus in culture; details: Staphylococcus aureus, 18 h
C. perfringens ATCC13124 = test: microbe, parasite or virus in culture; details: Clostridium perfringens, ATCC13124, 18 h
MDR A. baumannii 1 = test: microbe, parasite or virus in culture; details: Acinetobacter baumannii, 18 h
[1] = system: 29 bacterial strains (11 Gram‐positive, 18 Gram‐negative); test: GM of the MICs across the 29 bacterial strains; format: cell-based; details: read-out: GM: Geometric mean of the MICs across the 29 bacterial strains
Experimental: (§1) The 2 fold broth microdilution method was performed following previously established protocols.^[ [65], [66] ^] A total of 29 strains of human pathogenic microorganisms (11 Gram‐positive and 18 Gram‐negative) were included in the assay. Standard strains were maintained in our laboratory, and clinical isolates were obtained from the Fourth Affiliated Hospital of Soochow University. […] Gradient dilutions of the drugs (vancomycin, AMPs, and vancomycin‐AMP conjugates) were prepared in 96‐well plates, with 50 µL of each drug solution added per well. For the vancomycin and AMP mixture, 25 µL of vancomycin was combined with 25 µL of AMP at the corresponding monomer gradient concentration, resulting in a total volume of 50 µL. […] Following incubation, bacterial growth was assessed by measuring absorbance at 600 nm. The MIC was defined as the lowest concentration at which no bacterial growth was detected.

VRSA 52 biofilms = details: 8 µM, 4 h, SYTO9/PI CLSM
[2] = system: VRSA 52 and E. coli ATCC25922; test: ROS fluorescent probe assay (DCFH‐DA); format: cell-based; details: DCFH‐DA 10 µM, 1 h
Experimental: In accordance with the experimental methods described in previous literature,^[ [42] ^] […] The DCFH‐DA probe (Sigma‐Aldrich, US) was then added at a final concentration of 10 µM, and the mixture was incubated for 30 min at 37 °C, protected from light. After incubation, the samples were centrifuged to remove residual DCFH‐DA. The stained bacterial solution was transferred to a 96‐well black plate and mixed with varying concentrations of drugs (vancomycin, MSI‐78, and Vm‐MSI). Polymyxin B was used as a positive control, while PBS buffer served as a negative control. The plates were incubated at 37 °C for 1 h, protected from light. Finally, fluorescence was recorded using a Tecan Infinite M1000 PRO microplate reader (Tecan, Switzerland) with an excitation wavelength of 488 nm and an emission wavelength of 525 nm.

S. aureus CMCC26003 [3] = test: Antimicrobial blockade experiment using D‐Ala‐D‐Ala; format: cell-based; details: D‐Ala‐D‐Ala 0 to 128 µg mL^−1
Description: In accordance with the experimental methods described in previous literature,^[ [42] ^]

S. aureus CMCC26003 [4] = test: Bacterial killing kinetics; details: 4 µM, sampled 0-180 min
13 bacterial strains = test: GM of MIC from tested bacterial strains (Table S2); format: cell-based; details: 13 strains of Table S2; read-out: GM: geometric mean of MIC from tested bacterial strains
Experimental: as §1

S. typhimurium CICC21483 = test: MIC, 2 fold broth microdilution; format: cell-based; details: Salmonella enterica, MH broth, 37 °C, 18 h, OD600, read-out: MIC
Experimental: as §1

S. flexneri CMCC51571 = test: MIC, 2 fold broth microdilution; format: cell-based; details: Shigella flexneri, MH broth, 37 °C, 18 h, OD600, read-out: MIC
Experimental: as §1

P. aeruginosa 52097 = test: MIC, 2 fold broth microdilution; format: cell-based; details: Pseudomonas aeruginosa, MH broth, 37 °C, 18 h, OD600, read-out: MIC
Experimental: as §1

B. cereus CMCC63301 = test: MIC, 2 fold broth microdilution; format: cell-based; details: Bacillus cereus, MH broth, 37 °C, 18 h, OD600, read-out: MIC
Experimental: as §1

[5] = system: V. parahemolyticus ATCC17802; test: MIC, 2 fold broth microdilution; format: cell-based; details: MH broth, 37 °C, 18 h, OD600, read-out: MIC
Experimental: as §1

P. aeruginosa CMCC10104 = test: MIC, 2 fold broth microdilution; format: cell-based; details: Pseudomonas aeruginosa, MH broth, 37 °C, 18 h, OD600, read-out: MIC
Experimental: as §1

P. aeruginosa 60357 = test: MIC, 2 fold broth microdilution; format: cell-based; details: Pseudomonas aeruginosa, MH broth, 37 °C, 18 h, OD600, read-out: MIC
Experimental: as §1

S. flexneri ATCC12022 = test: MIC, 2 fold broth microdilution; format: cell-based; details: Shigella flexneri, MH broth, 37 °C, 18 h, OD600, read-out: MIC
Experimental: as §1

P. aeruginosa ATCC27853 = test: microbe, parasite or virus in culture; details: Pseudomonas aeruginosa, ATCC27853, 18 h
S. aureus 15772 = test: microbe, parasite or virus in culture; details: Staphylococcus aureus, 15772, 18 h
E. coli ATCC25922 [6] = test: Live/dead bacteria staining (PI/SYTO9, CLSM); format: cell-based; details: 4 µM, 1 h
E. coli ATCC25922 [7] = test: microbe, parasite or virus in culture; details: Escherichia coli, ATCC25922, 18 h
E. coli CMCC44102 = test: microbe, parasite or virus in culture; details: Escherichia coli, CMCC44102, 18 h
[8] = system: S. aureus CMCC26003 persister cells; test: Anti‐persister cells assay; details: 4 µM, 48 h, after 20× MIC ciprofloxacin for 8 h
E. faecalis 2 = test: microbe, parasite or virus in culture; details: Enterococcus faecalis, 2, 18 h
E. coli ATCC25922 [9] = test: Bacterial killing kinetics; details: 4 µM, sampled 0-180 min
S. aureus ATCC29213 = test: microbe, parasite or virus in culture; details: Staphylococcus aureus, ATCC29213, 18 h
MDR K. pneumoniae 4 = test: microbe, parasite or virus in culture; details: Klebsiella pneumoniae, 18 h

## CN[C@H](CC(C)C)C(=O)N[C@H]1C(=O)N[C@@H](CC(N)=O)C(=O)N[C@H]2C(=O)N[C@H]3C(=O)N[C@H](C(=O)N[C@H](C(=O)O)c4cc(O)cc(O)c4-c4cc3ccc4O)[C@H](O)c3ccc(c(Cl)c3)Oc3cc2cc(c3O[C@@H]2O[C@H](CO)[C@@H](O)[C@H](O)[C@H]2O[C@H]2C[C@](C)(N)[C@H](O)[C@H](C)O2)Oc2ccc(cc2Cl)[C@H]1O [Vm, vancomycin]
MRSA ATCC43300
  MIC: 3.16 µM and 4.69 µg/mL
VRSA 52
  MIC: > 67.3 µM and > 100 µg/mL
C. perfringens ATCC13124
  MIC: 25.2 µM (≈ 36.6 µg/mL)
MDR A. baumannii 1
  MIC: > 67.3 µM
[1]
  MIC: 55.1 µM (≈ 79.8 µg/mL)
VRSA 52 biofilms
  killing in the surface layer of the biofilm (dead cells): 25%
[2]
  intracellular ROS production: did not induce ROS production
S. aureus CMCC26003 [3]
  fold increase in the MIC value on exogenous addition of D‐Ala‐D‐Ala: > 25 fold
S. aureus CMCC26003 [4]
  time to complete eradication of all viable bacteria: > 180 min
13 bacterial strains
  MIC: 70 µg/mL (≈ 48.3 µM)
S. typhimurium CICC21483
  MIC: > 67.3 µM
S. flexneri CMCC51571
  MIC: > 67.3 µM
P. aeruginosa 52097
  MIC: > 67.3 µM
B. cereus CMCC63301
  MIC: 50.5 µM (≈ 73.2 µg/mL)
[5]
  MIC: 50.5 µM (≈ 73.2 µg/mL)
P. aeruginosa CMCC10104
  MIC: > 67.3 µM
P. aeruginosa 60357
  MIC: > 67.3 µM
S. flexneri ATCC12022
  MIC: 50.5 µM (≈ 73.2 µg/mL)
P. aeruginosa ATCC27853
  MIC: > 67.3 µM and > 100 µg/mL
S. aureus 15772
  MIC: > 67.3 µM and > 100 µg/mL
E. coli ATCC25922 [6]
  bacteria killed (mortality): 6%
E. coli ATCC25922 [7]
  MIC: > 67.3 µM and > 100 µg/mL
E. coli CMCC44102
  MIC: > 67.3 µM
[8]
  reduction in the number of persister cells: one‐order reduction
E. faecalis 2
  MIC: > 67.3 µM
E. coli ATCC25922 [9]
  time to elimination of all bacteria: no bactericidal activity
S. aureus ATCC29213
  MIC: 3.16 µM and 4.69 µg/mL
MDR K. pneumoniae 4
  MIC: > 67.3 µM
